The values below come from US9499582B2, “Compositions and methods for increasing carnitine level in muscle tissue” (Oneday—Biotech And Pharma Ltd., priority 2012, dated 2016).

Data set [1] relates to carnitine level in other tissues, including liver and kidneys. The data set is described as follows: Carnitine levels in other mouse tissues (lung, heart, brain, liver, kidney, blood) after i.p. peptide administration. Format: in vivo. The note with it: male ICR mice, 250 mg/kg i.p. for 5 consecutive days, tissues removed half an hour after last injection. On the procedure:
(§1) Male ICR mice were injected i.p. with 250 mg/kg of the DY-65 peptide for 5 consecutive days. Half an hour after the last injection lung, heart, skeletal muscle (femural), brain, liver, kidney and blood were removed, homogenized (100 mg tissue in 200 μl distilled water), centrifuged and filtrated through 30K Microcon® filter. Carnitine analysis was carried out by a commercial kit (BIOVISION™, catalogue number K642-100). n=4 for each group.

Data set [2] can be described thus: Toxicity observation in mice treated with the peptide. The note with it: male ICR mice, 250 mg/kg i.p. for 5 consecutive days. Format: in vivo.
In data set [3] the test system is carnitine level in skeletal muscle tissue. Nature of the data set: Carnitine levels in mouse tissues after i.p. peptide administration (commercial carnitine kit). It counts as in vivo, Male ICR mice. The protocol: as §1

As for “N-acetyl-Cys-Lys-Met-Cys-NH2 (Ac-CKMC-NH2; cysteine pairing not given here) [DY-65]”, the “elevation in carnitine level in other tissues, including liver and kidneys” value in data set [1] is on record as “did not demonstrate a significant elevation in carnitine level”. Also, the toxicity effects result in data set [2] is given as “no toxicity effects were observed”. The “elevation in the level of carnitine in skeletal muscle tissue” value in data set [3] (healthy male ICR mice, 250 mg/kg i.p. for 5 consecutive days, femural skeletal muscle removed half an hour after last injection, p<0.05, n=4) was “about 150%”.

Consider “N-acetyl-Cys-Met-Lys-Cys-NH2 (Ac-CMKC-NH2; cysteine pairing not given here) [DY-70, reference compound]”, for which, in data set [3] (experiment of Example 1 repeated, all tissues examined (lung, heart, skeletal muscle, brain, liver, kidney, blood)), the “increased carnitine levels compared to baseline levels in any of the tissues examined” value is “did not result in increased carnitine levels”.
